Assay results: patent publication US20110217258A1, “Combined Use of Bendamustine, Doxorubicin and Bortezomib for the Treatment of Multiple Myeloma” (Indiana University Research and Technology Corporation, priority 2008, published 2011)

System: H929 and MM1R myeloma cell lines
Experiment: MTS cellular cytotoxicity assay, single agent
Format: cell-based
Description: H929 and MM1R myeloma cell lines were cultured in vitro and cellular cytotoxicity was measured by MTS ([3-(4,5-dimethylthiazol-2-yl)-5-(3-carboxymethoxyphenyl)-2-(4-sulfophenyl)-2H-tetrazolium, inner salt) assay. The effect of the combination in terms of additive, antagonistic, or synergistic activity was assessed by Valeriote and Lin's method (Valeriote and Lin, Cancer Chemother Rep 1975; 59:895-900). […] To test the effect of the combination of all three drugs, cells were cultured with bendamustine (15 μg/ml) and doxorubicin (0.03 μg/ml) for 48 hours, and bortezomib (2.5 nmol/L) was added in the last 24 hours, and cytotoxicity was assayed.

`Cl.Cn1c(CCCC(=O)O)nc2cc(N(CCCl)CCCl)ccc21` [bendamustine, 1H-benzimidazole-2-butanoic acid, 5-[bis(2-chloroethyl)amino]-1-methyl-, monohydrochloride] was tested, and the CC50 (48 h, read-out: concentration lethal to 50% of cells (LC50)) was 34.9 ± 3.4 µg/mL and the “MM cell death induced by drug alone” value (bendamustine alone, repeated experiments) was “time and dose-dependent”.
